Data: US20150352134A1, “COMPOSITION FOR TOPICAL SKIN APPLICATION CONTAINING GINSENOSIDE F2 DERIVED FROM HYDROPONIC GINSENG” (AMOREPACIFIC CORPORATION, priority 2012, published 2015)

Tests used:
[1] = tested on: mouse with vitiligo (C57b1/6-Mitf^mi-vit); test: Grey hair prevention: melanin in newly grown hair of mouse with vitiligo; assay type: in vivo; details: applied twice a day, about 3 weeks, 50 mM IBMX, 2.5% ginsenoside F2
Procedure: A mouse with vitiligo (C57b1/6-Mitf^mi-vit) is purchased from The Jackson Lab in U.S.A. The testing method on the grey hair inhibitory effect using a mouse with lots of grey hair is carried out as follows. A 12-week old mouse is subjected to depilation on the back side. The area of the depilated region is controlled to be the same to every object. From the next day of the depilation, the grey hair inhibitory substances are applied on the depilated region twice a day. The vehicle for the grey hair inhibitory substances is the mixture of EtOH, 1,3-BG and DW (3:2:5 in volume ratio). The liquid containing the vehicle alone is the negative control, the liquid containing the vehicle in combination with 50 mM IBMX is the positive control, and the liquid containing the vehicle in combination with 2.5% ginsenoside F2 is the test group. When the difference in the grey hair inhibitory effect between the substances is visually recognizable in about 3 weeks, the newly grown hair is collected to measure the quantity of melanin produced in the hair. The quantity of melanin in the hair is measured using esperase (Novozyme) strains that are a protein hydrolase. Esperase is dissolved in a buffer solution (50 mM tris-HCl, 5 mM DTT, pH 9.3) to a concentration of 1 NPU/ml to prepare a reaction buffer. 5 mg of mouse hair is put in 1 ml of the reaction buffer, which is stirred at a speed of 1,000 rpm at 37° C. for 13 hours to cause the reaction and then subjected to a momentary centrifugal isolation to separate the reactant solution from hair. The reactant solution thus obtained is placed in each well of a 96-well plate, and the absorbance at 405 nm is measured to determine the amount of melanin in the reactant solution. When a mouse with vitiligo and lots of grey hair is treated with the negative control substance, the positive control substance, or the test substance, the efficacies are visually observed, and the melanin in hair is quantitatively analyzed.

[2] = tested on: Human keratinocytes; test: Promotion of keratinocyte differentiation (cornified envelope, absorbance 340 nm); assay type: cell-based; details: ginsenoside 5 ppm, 5 days; low calcium negative control = 100
Procedure: The quantity of CE (Cornified Envelop) generated during differentiation of keratinocytes is measured in terms of absorbance in order to evaluate the ginsenoside F2 in regards to the effect of promoting differentiation of keratinocytes.
Human keratinocytes isolated from the epidermis of a newborn baby and subjected to a primary cultivation are immobilized in the bottom of a cultivation flask, treated with ginsenoside F2 applied to the culture medium to a concentration of 5 ppm, and cultured for 5 days until the keratinocytes grow to take up about 70 to 80% of the bottom area. In this regard, the negative control is the group treated with low calcium (0.03 mM), while the positive control is the group treated with high calcium (1.2 mM). Then, the cultured keratinocytes are harvested, washed with phosphate-buffered saline (PBS), treated with a 10 mM tris-HCl buffer solution (pH 7.4) containing 2% sodium dodecyl sulfate (SDS) and 20 mM dithiothreitol (DTT), and then subjected to sonication, boiling, and centrifugal isolation. The precipitation is suspended in 1 mL of PBS to measure the absorbance at 340 nm. Apart from this process, a part of the solution after sonication is collected and measured in regards to the protein content, which is determined as a reference in evaluating the degree of differentiation.

[3] = tested on: MITF; test: MITF expression in melanocytes (Western Blot); assay type: cell-based; details: 501me1 cell line, IBMX 100 μM, ginsenoside 10 ppm
Procedure: (§1) 501me1 cell line is injected in each well of a 6-well microtiter plate at a rate of 500,000 cells/well. The cell line in each well is treated with 0.1% of DMSO as the negative control group, 100 μM of IBMX as the positive control group, or ginsenoside 10 ppm of F2 as the test group, and cultured at 37° C. for 24 hours, 48 hours, or 72 hours, to obtain proteins. The proteins thus obtained are subjected to Western Blot using MITF and tyrosinase antibodies. Protein extraction and Western Blot are performed using the standard methods known in the art.

[4] = tested on: B16/F10 melanoma cells; test: Melanogenesis inhibition in B16/F10 melanoma cells; assay type: cell-based; details: sample containing 0.001 wt. % of test substance; 3-day cultivation
Procedure: As a test substance, a sample containing 0.001 wt. % of ginsenoside F2 or kojic acid is added to a culture medium of B16/F10 melanoma cells (available from Korean Cell Line Bank) at a predetermined concentration. The culture medium is eliminated after 3-day cultivation. The cells are washed with PBS and dissolved in 1N NaOH. Then, the absorbance at 405 nm is measured. The control is the cells not treated with any test substance. In comparison with the melanin content in the control group, the inhibitory ability of each test substance against melanogenesis is measured. […] [formula]

[5] = biological target: T1, elastase type III (Sus scrofa, UniProt P00772); test: Elastase inhibitory effect; assay type: biochemical; details: EGCG 250 μM; 25° C., 15 minutes, absorbance 415 nm
T1 construct: purchased Sigma-Aldrich E0127
T1 sequence (P00772 27-266): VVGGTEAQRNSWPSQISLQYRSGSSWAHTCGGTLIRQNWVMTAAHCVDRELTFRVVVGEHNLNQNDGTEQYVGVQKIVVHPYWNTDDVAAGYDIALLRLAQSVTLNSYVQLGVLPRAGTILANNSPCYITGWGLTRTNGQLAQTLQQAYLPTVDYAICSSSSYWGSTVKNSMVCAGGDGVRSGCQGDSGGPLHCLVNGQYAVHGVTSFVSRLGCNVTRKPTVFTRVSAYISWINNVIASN
Procedure: The elastase inhibitory function of the ginsenoside F2 is measured in comparison with that of EGCG. The elastase and the substrate used herein are purchased from Sigma-Aldrich, U.S.A. (Cat. No. E0127).
The elastase inhibitory function is measured according to the following method.
In a 96-well plate, ginsenoside F2 (200 μL) and 50 μL of a 20 μg/mL elastase type III solution are mixed with a […] tris-HCL buffer solution (pH 8.0). The positive control is EGCG 250 μM, and the negative control which is a non-treated group is distilled water. Then, 100 μL of 0.4514 mg/mL N-succinyl-ala-ala-ala-p-nitroanilide prepared with the buffer solution is added to the mixture and allowed to react at 25° C. for 15 minutes. After completion of the reaction, the absorbance at 415 nm was measured. The blank test is performed in the same manner as described above to achieve calibration verification.
The elastase inhibitory function is calculated according to the following mathematical formula 1, and the results are presented in Table 2.
Elastase inhibition rate (%)={1−(C−D)/(A−B)}×100 [Mathematical Formula 1]
A: Absorbance at 415 nm with enzyme and no test substance.
B: Absorbance at 415 nm with no test substance and no enzyme.
C: Absorbance at 415 nm with test substance and enzyme.
D: Absorbance at 415 nm with test substance and no enzyme.

[6] = tested on: tyrosinase; test: Tyrosinase expression in melanocytes (Western Blot); assay type: cell-based; details: 501me1 cell line, IBMX 100 μM, ginsenoside 10 ppm
Procedure: as §1

| Structure (SMILES) | Amount of melanin (%) with respect to control [1] [%] | Differentiation in keratinocytes (%) [2] [%] | MITF (Western Blot, in comparison with 100 of the negative control group) ([3]; 24 hrs) | MITF (Western Blot, in comparison with 100 of the negative control group) ([3]; 48 hrs) | MITF (Western Blot, in comparison with 100 of the negative control group) ([3]; 72 hrs) | Melanogenesis inhibition rate (%) [4] [%] | Inhibition rate (%) (elastase) [5] | Tyrosinase (Western Blot, in comparison with 100 of the negative control group) ([6]; 24 hrs) | Tyrosinase (Western Blot, in comparison with 100 of the negative control group) ([6]; 48 hrs) | Tyrosinase (Western Blot, in comparison with 100 of the negative control group) ([6]; 72 hrs) |
| --- | --- | --- | --- | --- | --- | --- | --- | --- | --- | --- |
| CC(C)=CCC[C@](C)(O[C@@H]1O[C@H](CO)[C@@H](O)[C@H](O)[C@H]1O)[C@H]1CC[C@]2(C)[C@@H]1[C@H](O)C[C@@H]1[C@@]3(C)CC[C@H](O[C@@H]4O[C@H](CO)[C@@H](O)[C@H](O)[C@H]4O)C(C)(C)[C@@H]3CC[C@]12C [Ginsenoside F2, ginsenoside F2] | 110.8 | 309 | 92 | 120 | 162 | 72 | 78 | 150 | 182 | 211 |
| CC(C)=CCC[C@](C)(O[C@@H]1O[C@H](CO[C@@H]2O[C@H](CO)[C@@H](O)[C@H](O)[C@H]2O)[C@@H](O)[C@H](O)[C@H]1O)[C@H]1CC[C@]2(C)[C@@H]1[C@H](O)C[C@@H]1[C@@]3(C)CC[C@H](O[C@@H]4O[C@H](CO)[C@@H](O)[C@H](O)[C@H]4O[C@@H]4O[C@H](CO)[C@@H](O)[C@H](O)[C@H]4O)C(C)(C)[C@@H]3CC[C@]12C [Ginsenoside Rb1] | 107.1 | 265 | 93 | 116 | 144 | 61 | 71 | 149 | 165 | 189 |
